In ChEMBL document CHEMBL5131471, “Design, synthesis and mechanism studies of novel dual PARP1/BRD4 inhibitors against pancreatic cancer” (Eur J Med Chem, 2022) one finds IC50 data, which are given here for eight molecules.

One test deals with THP-1. Kind of test: Antiproliferative activity against human THP-1 cells expressing BRD4 assessed as inhibition of cell growth measured after 3 days by MTT assay. It counts as functional, cell-based. To be noted: THP-1, 72 h. A general note: Tetrazolium dyes change colour on reduction, which living cells bring about.
The subject of a further test is MDA-MB-468. The experiment in a line: Antiproliferative activity against BRCA-proficient human MDA-MB-468 cells assessed as inhibition of cell growth measured after 7 days by MTT assay. It counts as functional, cell-based. To be noted: MDA-MB-468, 168 h.
Test [1] deals with Poly [ADP-ribose] polymerase 1 (Homo sapiens, UniProt P09874). Kind of test: Inhibition of PARP1 (unknown origin) using biotinylated NAD+ as substrate by microplate reader method.
Test [2] has as its target Bromodomain-containing protein 4 (Homo sapiens, UniProt O60885). The experiment in a line: Inhibition of BRD4-BD1/2 (unknown origin).
In a further test the test system is HCT-116. The experiment in a line: Antiproliferative activity against BRCA2-mutated human HCT-116 cells assessed as inhibition of cell growth measured after 7 days by MTT assay. It counts as functional, cell-based. The note with it: HCT-116, 168 h.
In a further test the test system is MDA-MB-231. Kind of test: Antiproliferative activity against BRCA-proficient human MDA-MB-231 cells assessed as inhibition of cell growth measured after 7 days by MTT assay. Format: functional, cell-based. The note with it: MDA-MB-231, 168 h.
The test system of another test is CFPAC-1. The experiment in a line: Antiproliferative activity against human CFPAC-1 cells assessed as inhibition of cell growth measured after 4 days by MTT assay. The note with it: CFPAC-1, 96 h. It counts as functional, cell-based.
Another test relates to CAPAN-1. The experiment in a line: Antiproliferative activity against human CAPAN-1 cells assessed as inhibition of cell growth measured after 4 days by MTT assay. It counts as functional, cell-based. To be noted: CAPAN-1, 96 h.
The test system of a further test is SW1990. The experiment in a line: Antiproliferative activity against human SW1990 cells assessed as inhibition of cell growth measured after 4 days by MTT assay. To be noted: SW1990, 96 h. It counts as functional, cell-based.

Sequence of Poly [ADP-ribose] polymerase 1 (P09874 whole entry): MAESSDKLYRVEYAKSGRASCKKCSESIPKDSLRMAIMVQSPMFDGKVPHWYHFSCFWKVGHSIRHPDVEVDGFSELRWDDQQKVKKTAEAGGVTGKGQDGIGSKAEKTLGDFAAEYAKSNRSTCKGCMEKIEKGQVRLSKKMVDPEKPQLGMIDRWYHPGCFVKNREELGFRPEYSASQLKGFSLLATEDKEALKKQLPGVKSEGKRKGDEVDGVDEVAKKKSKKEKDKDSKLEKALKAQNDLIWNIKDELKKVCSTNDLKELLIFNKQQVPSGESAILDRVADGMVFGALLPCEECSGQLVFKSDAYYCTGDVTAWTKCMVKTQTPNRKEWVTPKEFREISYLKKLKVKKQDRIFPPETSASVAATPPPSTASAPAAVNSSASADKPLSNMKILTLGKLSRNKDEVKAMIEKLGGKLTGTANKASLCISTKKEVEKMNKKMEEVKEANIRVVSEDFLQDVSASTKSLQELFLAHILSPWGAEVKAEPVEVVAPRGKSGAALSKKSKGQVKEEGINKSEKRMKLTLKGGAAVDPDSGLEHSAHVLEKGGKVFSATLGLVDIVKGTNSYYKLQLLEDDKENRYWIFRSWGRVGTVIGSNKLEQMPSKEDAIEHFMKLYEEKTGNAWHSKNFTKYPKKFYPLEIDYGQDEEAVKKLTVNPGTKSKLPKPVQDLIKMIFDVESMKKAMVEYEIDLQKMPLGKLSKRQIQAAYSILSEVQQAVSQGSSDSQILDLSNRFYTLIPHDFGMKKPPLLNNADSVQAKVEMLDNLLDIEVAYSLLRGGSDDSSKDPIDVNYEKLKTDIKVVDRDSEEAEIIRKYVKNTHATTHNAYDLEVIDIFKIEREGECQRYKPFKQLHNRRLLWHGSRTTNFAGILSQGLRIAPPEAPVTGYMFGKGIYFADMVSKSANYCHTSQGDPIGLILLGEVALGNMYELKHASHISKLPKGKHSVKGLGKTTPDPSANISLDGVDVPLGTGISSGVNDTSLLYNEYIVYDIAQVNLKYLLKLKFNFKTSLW

On to `Cc1noc(C)c1-c1ccc2c(c1)C(c1ccccc1)N(CC(=O)N[C@@H](C)c1nc3c(C(N)=O)cccc3[nH]1)C(=O)N2C` (stereo partly specified), for which the concentration for half-maximal inhibition (IC50) in the test on THP-1 stood at 740 nM; with MDA-MB-468 it was 380 nM; in [1], 187 nM; in test [2] it was 326 nM; in the test with HCT-116 it was 5290 nM; with MDA-MB-231 it was 520 nM.

For `Cc1noc(C)c1-c1ccc2c(c1)C(c1ccccc1)N(CC(=O)N[C@H](C)c1nc3c(C(N)=O)cccc3[nH]1)C(=O)N2` (stereo partly specified), the concentration for half-maximal inhibition (IC50) with THP-1 is 1530 nM; in the test on MDA-MB-468, 930 nM; in test [1] it was 112 nM; in test [2], 116 nM; in the test on HCT-116, 16900 nM; in the test on MDA-MB-231, 2600 nM.

Regarding `Cc1noc(C)c1-c1ccc2c(c1)C(c1ccccc1)N(CC(=O)NC(c1nc3c(C(N)=O)cccc3[nH]1)C(C)C)C(=O)N2` (stereo unspecified), the IC50 in [1] turned out to be 326 nM; in test [2] it was 114 nM.

For the molecule `Cc1noc(C)c1-c1ccc2c(c1)C(c1ccccc1)N(CC(=O)NCc1nc3c(C(N)=O)cccc3[nH]1)C(=O)N2C` (stereo unspecified), the IC50 in test [1] was 73 nM; in [2] it was 534 nM.

For the molecule `Cc1noc(C)c1-c1ccc2c(c1)C(c1ccccc1)N(Cc1nc3c(C(N)=O)cccc3[nH]1)C(=O)N2` (stereo unspecified), the IC50 in the test on CFPAC-1 amounted to 2030 nM; with THP-1, 210 nM; in the test on CAPAN-1, 2310 nM; in the test on MDA-MB-468, 1120 nM; in [1] it was 361 nM; in [2], 43 nM. Further, the results for the IC50 with SW1990, with HCT-116 and with MDA-MB-231 were 2520 nM, 3720 nM and 1320 nM, respectively.

Turning to `Cc1noc(C)c1-c1ccc2c(c1)C(c1ccccc1)N(CC(=O)NC(C)(C)c1nc3c(C(N)=O)cccc3[nH]1)C(=O)N2` (stereo unspecified), the IC50 in the test on CFPAC-1 worked out at 2560 nM; in the test with THP-1, 690 nM; in the test on CAPAN-1 it was 3710 nM; in the test on MDA-MB-468, 460 nM; in test [1] it was 62 nM; in [2] it was 102 nM. Also, the half-maximal inhibitory concentration (IC50) amounted to 3880 nM with SW1990, 11800 nM in the test on HCT-116 and 920 nM in the test on MDA-MB-231.

On to `Cc1noc(C)c1-c1ccc2c(c1)C(c1ccccc1)N(CC(=O)N[C@@H](C)c1nc3c(C(N)=O)cccc3[nH]1)C(=O)N2` (stereo partly specified), for which the concentration for half-maximal inhibition (IC50) with THP-1 worked out at 1660 nM; in the test with MDA-MB-468, 1040 nM; in test [1], 52 nM; in test [2] it was 90 nM; with HCT-116 it was 16500 nM; in the test with MDA-MB-231, 2630 nM.

Take `Cc1noc(C)c1-c1ccc2c(c1)C(c1ccccc1)N(CC(=O)c1nc3c(C(N)=O)cccc3[nH]1)C(=O)N2` (stereo unspecified): the IC50 in the test on THP-1 worked out at 4090 nM; in the test with MDA-MB-468, 2590 nM; in test [1], 116 nM; in test [2], 132 nM; in the test on HCT-116, 44400 nM; in the test on MDA-MB-231, 8090 nM.

One may read the IC50 as the concentration needed to halve the response being measured.
